Results as given in ChEMBL document CHEMBL1949655, “Neomycin-phenolic conjugates: polycationic amphiphiles with broad-spectrum antibacterial activity, low hemolytic activity and weak serum protein binding” (Bioorg Med Chem Lett, 2012).
≈ marks a conversion by molar mass, not a printed value.

Columns and labels:
Pseudomonas aeruginosa [1] = experiment: microbe, parasite or virus in culture; type: functional; conditions: ATCC 27853, 24 h
Description: Antibacterial activity against Pseudomonas aeruginosa ATCC 27853 after 24 hrs by macrobroth dilution method in the presence of bovine serum albumin

Escherichia coli [2] = experiment: microbe, parasite or virus in culture; type: functional; conditions: ATCC 25922, 24 h
Description: Antibacterial activity against Escherichia coli ATCC 25922 after 24 hrs by macrobroth dilution method in the presence of bovine serum albumin

Streptococcus pneumoniae [3] = experiment: microbe, parasite or virus in culture; type: functional; conditions: ATCC 49619, 24 h
Description: Antibacterial activity against Streptococcus pneumoniae ATCC 49619 after 24 hrs by macrobroth dilution method

Klebsiella pneumoniae [4] = experiment: microbe, parasite or virus in culture; type: functional; conditions: ATCC 13883, 24 h
Description: Antibacterial activity against Klebsiella pneumoniae ATCC 13883 after 24 hrs by macrobroth dilution method in the presence of bovine serum albumin

[5] = test system: Stenotrophomonas maltophilia; experiment: microbe, parasite or virus in culture; type: functional; conditions: isolate CAN-ICU 62584, 24 h
Description: Antibacterial activity against Stenotrophomonas maltophilia isolate CAN-ICU 62584 after 24 hrs by macrobroth dilution method in the presence of bovine serum albumin

[6] = Toxicity in human erythrocytes assessed as hemolysis at 100 ug/ml by spectrophotometry; conditions: at 100 µg/mL
Staphylococcus aureus [7] = experiment: microbe, parasite or virus in culture; type: functional; conditions: ATCC 29213, 24 h
Description: Antibacterial activity against Staphylococcus aureus ATCC 29213 after 24 hrs by macrobroth dilution method

Staphylococcus aureus [8] = experiment: microbe, parasite or virus in culture; type: functional; conditions: ATCC 33592, 24 h
Description: Antibacterial activity against methicillin-resistant Staphylococcus aureus ATCC 33592 after 24 hrs by macrobroth dilution method

Escherichia coli [9] = experiment: microbe, parasite or virus in culture; type: functional; conditions: isolate CAN-ICU 61714, 24 h
Description: Antibacterial activity against Escherichia coli isolate CAN-ICU 61714 after 24 hrs by macrobroth dilution method in the presence of bovine serum albumin

Escherichia coli [10] = experiment: microbe, parasite or virus in culture; type: functional; conditions: isolate CAN-ICU 61714, 24 h; remark: listed apart in the source
Description: Antibacterial activity against Escherichia coli isolate CAN-ICU 61714 after 24 hrs by macrobroth dilution method

Escherichia coli [11] = experiment: microbe, parasite or virus in culture; type: functional; conditions: isolate CAN-ICU 63074, 24 h
Description: Antibacterial activity against Escherichia coli isolate CAN-ICU 63074 after 24 hrs by macrobroth dilution method in the presence of bovine serum albumin

Enterococcus faecium [12] = experiment: microbe, parasite or virus in culture; type: functional; conditions: ATCC 27270, 24 h
Description: Antibacterial activity against Enterococcus faecium ATCC 27270 after 24 hrs by macrobroth dilution method in the presence of bovine serum albumin

Staphylococcus aureus [13] = experiment: microbe, parasite or virus in culture; type: functional; conditions: ATCC 33592, 24 h; remark: listed apart in the source
Description: Antibacterial activity against methicillin-resistant Staphylococcus aureus ATCC 33592 after 24 hrs by macrobroth dilution method in the presence of bovine serum albumin

Enterococcus faecalis [14] = experiment: microbe, parasite or virus in culture; type: functional; conditions: ATCC 29212, 24 h
Description: Antibacterial activity against Enterococcus faecalis ATCC 29212 after 24 hrs by macrobroth dilution method in the presence of bovine serum albumin

[15] = test system: Staphylococcus epidermidis; experiment: microbe, parasite or virus in culture; type: functional; conditions: Staphylococcus epidermidis, 81388, 24 h
Description: Antibacterial activity against methicillin-susceptible Staphylococcus epidermidis 81388 after 24 hrs by macrobroth dilution method in the presence of bovine serum albumin

[16] = test system: Stenotrophomonas maltophilia; experiment: microbe, parasite or virus in culture; type: functional; conditions: isolate CAN-ICU 62584, 24 h; remark: listed apart in the source
Description: Antibacterial activity against Stenotrophomonas maltophilia isolate CAN-ICU 62584 after 24 hrs by macrobroth dilution method

Pseudomonas aeruginosa [17] = experiment: microbe, parasite or virus in culture; type: functional; conditions: isolate CAN-ICU 62308, 24 h
Description: Antibacterial activity against Pseudomonas aeruginosa isolate CAN-ICU 62308 after 24 hrs by macrobroth dilution method in the presence of bovine serum albumin

Acinetobacter baumannii [18] = experiment: microbe, parasite or virus in culture; type: functional; conditions: isolate CAN-ICU 63169, 24 h
Description: Antibacterial activity against Acinetobacter baumannii isolate CAN-ICU 63169 after 24 hrs by macrobroth dilution method in the presence of bovine serum albumin

[19] = test system: Staphylococcus epidermidis; experiment: microbe, parasite or virus in culture; type: functional, isolate CAN-ICU 61589; conditions: isolate CAN-ICU61589, 24 h
Description: Antibacterial activity against methicillin-resistant Staphylococcus epidermidis isolate CAN-ICU 61589 after 24 hrs by macrobroth dilution method in the presence of bovine serum albumin

Klebsiella pneumoniae [20] = experiment: microbe, parasite or virus in culture; type: functional; conditions: ATCC 13883, 24 h; remark: listed apart in the source
Description: Antibacterial activity against Klebsiella pneumoniae ATCC 13883 after 24 hrs by macrobroth dilution method

Enterococcus faecium [21] = experiment: microbe, parasite or virus in culture; type: functional; conditions: ATCC 27270, 24 h; remark: listed apart in the source
Description: Antibacterial activity against Enterococcus faecium ATCC 27270 after 24 hrs by macrobroth dilution method

Escherichia coli [22] = experiment: microbe, parasite or virus in culture; type: functional; conditions: ATCC 25922, 24 h; remark: listed apart in the source
Description: Antibacterial activity against Escherichia coli ATCC 25922 after 24 hrs by macrobroth dilution method

Pseudomonas aeruginosa [23] = experiment: microbe, parasite or virus in culture; type: functional; conditions: ATCC 27853, 24 h; remark: listed apart in the source
Description: Antibacterial activity against Pseudomonas aeruginosa ATCC 27853 after 24 hrs by macrobroth dilution method

Enterococcus faecalis [24] = experiment: microbe, parasite or virus in culture; type: functional; conditions: ATCC 29212, 24 h; remark: listed apart in the source
Description: Antibacterial activity against Enterococcus faecalis ATCC 29212 after 24 hrs by macrobroth dilution method

Pseudomonas aeruginosa [25] = experiment: microbe, parasite or virus in culture; type: functional; conditions: isolate CAN-ICU 62308, 24 h; remark: listed apart in the source
Description: Antibacterial activity against Pseudomonas aeruginosa isolate CAN-ICU 62308 after 24 hrs by macrobroth dilution method

Acinetobacter baumannii [26] = experiment: microbe, parasite or virus in culture; type: functional; conditions: isolate CAN-ICU 63169, 24 h; remark: listed apart in the source
Description: Antibacterial activity against Acinetobacter baumannii 63169 isolate CAN-ICU after 24 hrs by macrobroth dilution method

Escherichia coli [27] = experiment: microbe, parasite or virus in culture; type: functional; conditions: isolate CAN-ICU 63074, 24 h; remark: listed apart in the source
Description: Antibacterial activity against Escherichia coli isolate CAN-ICU 63074 after 24 hrs by macrobroth dilution method

[28] = test system: Staphylococcus epidermidis; experiment: microbe, parasite or virus in culture; type: functional; conditions: isolate CAN-ICU61589, 24 h
Description: Antibacterial activity against methicillin-resistant Staphylococcus epidermidis isolate CAN-ICU 61589 after 24 hrs by macrobroth dilution method

[29] = test system: Staphylococcus epidermidis; experiment: microbe, parasite or virus in culture; type: functional; conditions: Staphylococcus epidermidis, 81388, 24 h; remark: listed apart in the source
Description: Antibacterial activity against methicillin-susceptible Staphylococcus epidermidis 81388 after 24 hrs by macrobroth dilution method

Staphylococcus aureus [30] = experiment: microbe, parasite or virus in culture; type: functional; conditions: ATCC 29213, 24 h; remark: listed apart in the source
Description: Antibacterial activity against Staphylococcus aureus ATCC 29213 after 24 hrs by macrobroth dilution method in the presence of bovine serum albumin

Streptococcus pneumoniae [31] = experiment: microbe, parasite or virus in culture; type: functional; conditions: ATCC 49619, 24 h; remark: listed apart in the source
Description: Antibacterial activity against Streptococcus pneumoniae ATCC 49619 after 24 hrs by macrobroth dilution method in the presence of bovine serum albumin

Pseudomonas aeruginosa [32] = experiment: Ratio of MIC90 of neomycin sulfate to MIC90 of compound against Pseudomonas aeruginosa 62308; type: functional
Pseudomonas aeruginosa [33] = experiment: Ratio of MIC90 of neomycin sulfate to MIC90 of compound against Pseudomonas aeruginosa ATCC 27853; type: functional

Row | Structure (SMILES) | MIC90 (Pseudomonas aeruginosa [1]) [µg/mL] | MIC90 (Escherichia coli [2]) [µg/mL] | MIC90 (Streptococcus pneumoniae [3]) [µg/mL] | MIC90 (Klebsiella pneumoniae [4]) [µg/mL] | MIC90 [5] [µg/mL] | hemolysis at 100 ug/ml [6] [%] | MIC90 (Staphylococcus aureus [7]) [µg/mL] | MIC90 (Staphylococcus aureus [8]) [µg/mL] | MIC90 (Escherichia coli [9]) [µg/mL] | MIC90 (Escherichia coli [10]) [µg/mL] | MIC90 (Escherichia coli [11]) [µg/mL] | MIC90 (Enterococcus faecium [12]) [µg/mL] | MIC90 (Staphylococcus aureus [13]) [µg/mL] | MIC90 (Enterococcus faecalis [14]) [µg/mL] | MIC90 [15] [µg/mL] | MIC90 [16] [µg/mL] | MIC90 (Pseudomonas aeruginosa [17]) [µg/mL] | MIC90 (Acinetobacter baumannii [18]) [µg/mL] | MIC90 [19] [µg/mL] | MIC90 (Klebsiella pneumoniae [20]) [µg/mL] | further results
1 | Cc1cc(OCc2cn(C[C@H]3O[C@@H](O[C@@H]4[C@@H](O)[C@H](N)C[C@H](N)[C@H]4O[C@H]4O[C@H](CN)[C@@H](O)[C@H](O)[C@H]4N)[C@H](O)[C@@H]3O[C@H]3O[C@@H](CN)[C@@H](O)[C@H](O)[C@H]3N)nn2)cc(C)c1Cl | 512 (≈ 614 µM) | 32 (≈ 38.4 µM) | 64 (≈ 76.7 µM) | 4 (≈ 4.79 µM) | > 512 | 0.75 | 16 (≈ 19.2 µM) | 256 (≈ 307 µM) | 16 (≈ 19.2 µM) | 16 (≈ 19.2 µM) | 128 (≈ 153 µM) | 64 (≈ 76.7 µM) | 512 (≈ 614 µM) | 128 (≈ 153 µM) | 8 (≈ 9.59 µM) | > 512 | 256 (≈ 307 µM) | > 512 | 8 (≈ 9.59 µM) | 8 (≈ 9.59 µM) | MIC90 (Enterococcus faecium [21]): 128 µg/mL (≈ 153 µM); MIC90 (Escherichia coli [22]): 16 µg/mL (≈ 19.2 µM); MIC90 (Pseudomonas aeruginosa [23]): 512 µg/mL (≈ 614 µM); MIC90 (Enterococcus faecalis [24]): 64 µg/mL (≈ 76.7 µM); MIC90 (Pseudomonas aeruginosa [25]): 256 µg/mL (≈ 307 µM); MIC90 (Acinetobacter baumannii [26]): > 512 µg/mL; MIC90 (Escherichia coli [27]): 128 µg/mL (≈ 153 µM); MIC90 [28]: 8 µg/mL (≈ 9.59 µM); MIC90 [29]: 8 µg/mL (≈ 9.59 µM); MIC90 (Staphylococcus aureus [30]): 32 µg/mL (≈ 38.4 µM); MIC90 (Streptococcus pneumoniae [31]): 128 µg/mL (≈ 153 µM)
2 | Cc1cc(OCCCCc2cn(C[C@H]3O[C@@H](O[C@@H]4[C@@H](O)[C@H](N)C[C@H](N)[C@H]4O[C@H]4O[C@H](CN)[C@@H](O)[C@H](O)[C@H]4N)[C@H](O)[C@@H]3O[C@H]3O[C@@H](CN)[C@@H](O)[C@H](O)[C@H]3N)nn2)cc(C)c1Cl | > 512 | 32 (≈ 36.5 µM) | 64 (≈ 73 µM) | 4 (≈ 4.56 µM) | > 512 | 0.75 | 16 (≈ 18.3 µM) | 128 (≈ 146 µM) | 16 (≈ 18.3 µM) | 16 (≈ 18.3 µM) | 128 (≈ 146 µM) | 32 (≈ 36.5 µM) | 256 (≈ 292 µM) | 128 (≈ 146 µM) | 8 (≈ 9.13 µM) | > 512 | 256 (≈ 292 µM) | 512 (≈ 584 µM) | 8 (≈ 9.13 µM) | 4 (≈ 4.56 µM) | MIC90 (Enterococcus faecium [21]): 16 µg/mL (≈ 18.3 µM); MIC90 (Escherichia coli [22]): 32 µg/mL (≈ 36.5 µM); MIC90 (Pseudomonas aeruginosa [23]): 512 µg/mL (≈ 584 µM); MIC90 (Enterococcus faecalis [24]): 128 µg/mL (≈ 146 µM); MIC90 (Pseudomonas aeruginosa [25]): 256 µg/mL (≈ 292 µM); MIC90 (Acinetobacter baumannii [26]): 512 µg/mL (≈ 584 µM); MIC90 (Escherichia coli [27]): 128 µg/mL (≈ 146 µM); MIC90 [28]: 8 µg/mL (≈ 9.13 µM); MIC90 [29]: 8 µg/mL (≈ 9.13 µM); MIC90 (Staphylococcus aureus [30]): 32 µg/mL (≈ 36.5 µM); MIC90 (Streptococcus pneumoniae [31]): 256 µg/mL (≈ 292 µM)
3 | CC(C)(C)CC(C)(C)c1ccc(OCc2cn(C[C@H]3O[C@@H](O[C@@H]4[C@@H](O)[C@H](N)C[C@H](N)[C@H]4O[C@H]4O[C@H](CN)[C@@H](O)[C@H](O)[C@H]4N)[C@H](O)[C@@H]3O[C@H]3O[C@@H](CN)[C@@H](O)[C@H](O)[C@H]3N)nn2)c(Cc2ccc(Cl)cc2Cl)c1 | 512 (≈ 491 µM) | 64 (≈ 61.4 µM) | 64 (≈ 61.4 µM) | 64 (≈ 61.4 µM) | > 512 | 27.5 | 8 (≈ 7.67 µM) | 8 (≈ 7.67 µM) | 128 (≈ 123 µM) | 64 (≈ 61.4 µM) | 256 (≈ 245 µM) | 8 (≈ 7.67 µM) | 16 (≈ 15.3 µM) | 16 (≈ 15.3 µM) | 2 (≈ 1.92 µM) | 512 (≈ 491 µM) | 128 (≈ 123 µM) | 256 (≈ 245 µM) | 4 (≈ 3.83 µM) | 64 (≈ 61.4 µM) | Ratio (Pseudomonas aeruginosa [32]): 4; Ratio (Pseudomonas aeruginosa [33]): 4; MIC90 (Enterococcus faecium [21]): 8 µg/mL (≈ 7.67 µM); MIC90 (Escherichia coli [22]): 16 µg/mL (≈ 15.3 µM); MIC90 (Pseudomonas aeruginosa [23]): 128 µg/mL (≈ 123 µM); MIC90 (Enterococcus faecalis [24]): 8 µg/mL (≈ 7.67 µM); MIC90 (Pseudomonas aeruginosa [25]): 64 µg/mL (≈ 61.4 µM); MIC90 (Acinetobacter baumannii [26]): 64 µg/mL (≈ 61.4 µM); MIC90 (Escherichia coli [27]): 64 µg/mL (≈ 61.4 µM); MIC90 [28]: 1 µg/mL (≈ 0.959 µM); MIC90 [29]: 4 µg/mL (≈ 3.83 µM); MIC90 (Staphylococcus aureus [30]): 8 µg/mL (≈ 7.67 µM); MIC90 (Streptococcus pneumoniae [31]): 128 µg/mL (≈ 123 µM)
4 | CC(C)(C)CC(C)(C)c1ccc(OCCCCc2cn(C[C@H]3O[C@@H](O[C@@H]4[C@@H](O)[C@H](N)C[C@H](N)[C@H]4O[C@H]4O[C@H](CN)[C@@H](O)[C@H](O)[C@H]4N)[C@H](O)[C@@H]3O[C@H]3O[C@@H](CN)[C@@H](O)[C@H](O)[C@H]3N)nn2)c(Cc2ccc(Cl)cc2Cl)c1 | 512 (≈ 472 µM) | 64 (≈ 59 µM) | 64 (≈ 59 µM) | 32 (≈ 29.5 µM) | > 512 | 22.5 | 16 (≈ 14.7 µM) | 16 (≈ 14.7 µM) | 128 (≈ 118 µM) | 64 (≈ 59 µM) | 256 (≈ 236 µM) | 16 (≈ 14.7 µM) | 32 (≈ 29.5 µM) | 64 (≈ 59 µM) | 4 (≈ 3.69 µM) | 512 (≈ 472 µM) | 256 (≈ 236 µM) | > 512 | 4 (≈ 3.69 µM) | 32 (≈ 29.5 µM) | Ratio (Pseudomonas aeruginosa [32]): 4; Ratio (Pseudomonas aeruginosa [33]): 4; MIC90 (Enterococcus faecium [21]): 8 µg/mL (≈ 7.37 µM); MIC90 (Escherichia coli [22]): 64 µg/mL (≈ 59 µM); MIC90 (Pseudomonas aeruginosa [23]): 128 µg/mL (≈ 118 µM); MIC90 (Enterococcus faecalis [24]): 64 µg/mL (≈ 59 µM); MIC90 (Pseudomonas aeruginosa [25]): 64 µg/mL (≈ 59 µM); MIC90 (Acinetobacter baumannii [26]): 256 µg/mL (≈ 236 µM); MIC90 (Escherichia coli [27]): 128 µg/mL (≈ 118 µM); MIC90 [28]: 8 µg/mL (≈ 7.37 µM); MIC90 [29]: 8 µg/mL (≈ 7.37 µM); MIC90 (Staphylococcus aureus [30]): 16 µg/mL (≈ 14.7 µM); MIC90 (Streptococcus pneumoniae [31]): 64 µg/mL (≈ 59 µM)
